Laboratory results as given in patent US4921850A, “3-propenylcephem derivative” (Eisai Co., Ltd., priority 1986, dated 1990).
In brackets after ≈: the same amount, converted by molar mass. Where two headings read alike, the source gives them in different places.

How the values were obtained:
in vivo = details: intravenous, physiological saline solution, five ICR male 6 weeks-old mouse, read-out: values of acute toxicity
From the text: (1) Acute toxicity in mouse:
The compounds according to this invention dissolved in a physiological saline solution were intravenously dosed to five ICR male 6 weeks-old mouse.

Ser. marcescens ES-75 = assay: Anti-bacterial activity (MIC), agar dilution; format: cell-based; details: Serratia marcescens, ES75, 18 h, Ser. marcescens ES-75; agar dilution, about 10^6 CFU/ml, 18 hours, 37° C.; read-out: MIC
In short: (§1)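 Overnight Mueller-Hinton broth cultures were diluted to about 10^6 CFU/ml and spotted onto Mueller-Hinton agar plates carrying twofold serial dilutions of antibiotic. After 18 hours at 37° C, MIC (μg/ml) was determined by agar dilution.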

Kleb. pneumoniae EK-6 = assay: Anti-bacterial activity (MIC), agar dilution; format: cell-based; details: Klebsiella pneumoniae, EK6, 18 h
In short: as §1

Staph. aureus 209-P = assay: Anti-bacterial activity (MIC), agar dilution; format: cell-based; details: Staphylococcus aureus, 209P, 18 h, Staph. aureus 209-P; agar dilution, about 10^6 CFU/ml, 18 hours, 37° C.; read-out: MIC
In short: as §1

Escher. coli NIHJ = assay: Anti-bacterial activity (MIC), agar dilution; format: cell-based; details: Escherichia coli, 18 h, Escher. coli NIHJ; agar dilution, about 10^6 CFU/ml, 18 hours, 37° C.; read-out: MIC
In short: as §1

Pseud. aeruginosa EP-01 = assay: Anti-bacterial activity (MIC), agar dilution; format: cell-based; details: Pseudomonas aeruginosa, EP01, 18 h, Pseud. aeruginosa EP-01; agar dilution, about 10^6 CFU/ml, 18 hours, 37° C.; read-out: MIC
In short: as §1

[1] = system: Morganella morganii EP-14; assay: Anti-bacterial activity (MIC), agar dilution; format: cell-based; details: Morganella morganii, EP14, 18 h, about 10^6 CFU/ml, 37° C., read-out: MIC
In short: as §1

[2] = Kleb. pneumoniae EK-6, agar dilution, about 10^6 CFU/ml, 18 hours, 37° C., read-out: MIC

Compound | MIC (Ser. marcescens ES-75) [µg/mL] | MIC (Staph. aureus 209-P) [µg/mL] | MIC (Escher. coli NIHJ) [µg/mL] | MIC (Pseud. aeruginosa EP-01) [µg/mL] | MIC [1] [µg/mL] | MIC (Kleb. pneumoniae EK-6; [2]) [µg/mL] | LD50 (in vivo) [mg/kg] | MIC (Kleb. pneumoniae EK-6) [µg/mL]
CC12C[N+](C/C=C/C3=C(C(=O)[O-])N4C(=O)[C@@H](NC(=O)/C(=N\OCF)c5nsc(N)n5)[C@H]4SC3)(CCO1)CCO2 [Example 12, 7β-[2-(5-Amino-1,2,4-thiadiazol-3-yl)-(Z)-2-fluoromethoxyiminoacetamido]-3-[(E)-3-(5-aza-1-methyl-2,8-dioxabicyclo[3.3.1]nona-5-io)-1-propen-1-yl]-3-cephem-4-carboxylate] | 0.1 (≈ 0.171 µM) | 0.4 (≈ 0.685 µM) | 0.05 (≈ 0.0857 µM) | 1.56 (≈ 2.67 µM) | 0.05 (≈ 0.0857 µM) | – | > 2000 | ≤ 0.025
CC(=O)C[N+](C)(C)C/C=C/C1=C(C(=O)[O-])N2C(=O)[C@@H](NC(=O)/C(=N\OCF)c3nsc(N)n3)[C@H]2SC1 [Example 137, 7β-[2-(5-Amino-1,2,4-thiadiazol-3-yl)-(Z)-2-fluoromethoxyiminoacetamido]-3-[(E)-3-[(2-oxopropyl)dimethylammonio]-1-propen-1-yl]-3-cephem-4-carboxylate] | – | – | – | – | – | – | > 2000 | –
Nc1nc(/C(=N/OCF)C(=O)N[C@@H]2C(=O)N3C(C(=O)[O-])=C(/C=C/C[N+]4(CCO)CC=C(C=NO)CC4)CS[C@H]23)ns1 (some centres unmarked) [Example 42] | ≤ 0.025 | 0.2 (≈ 0.328 µM) | ≤ 0.025 | 1.56 (≈ 2.55 µM) | ≤ 0.025 | 0.05 (≈ 0.0819 µM) | – | –
CC[N+](C)(C/C=C/C1=C(C(=O)[O-])N2C(=O)[C@@H](NC(=O)/C(=N\OCF)c3nsc(N)n3)[C@H]2SC1)CCO (some centres unmarked) [Example 44] | 0.1 (≈ 0.184 µM) | 0.4 (≈ 0.736 µM) | 0.05 (≈ 0.092 µM) | 1.56 (≈ 2.87 µM) | 0.05 (≈ 0.092 µM) | ≤ 0.025 | – | –
C[N+]1(C/C=C/C2=C(C(=O)[O-])N3C(=O)[C@@H](NC(=O)/C(=N\OCF)c4nsc(N)n4)[C@H]3SC2)C[C@H](O)C[C@H]1CO (stereo partly drawn) [Example 8, 7β-[2-(5-Amino-1,2,4-thiadiazol-3-yl)-(Z)-2-fluoromethoxyiminoacetamido]-3-[(E)-3-(4R-hydroxy-2S-hydroxymethyl-1-methyl-1-pyrrolidinio)-1-propen-1-yl]-3-cephem-4-carboxylate] | ≤ 0.025 | 0.2 (≈ 0.35 µM) | ≤ 0.025 | 0.8 (≈ 1.4 µM) | ≤ 0.025 | ≤ 0.025 | – | –
Nc1nc(/C(=N/OCF)C(=O)N[C@@H]2C(=O)N3C(C(=O)[O-])=C(/C=C/C[N+]4(CC(O)CO)CCCC4)CS[C@H]23)ns1 (single isomer, unassigned) [Example 23-1] | ≤ 0.025 | 0.2 (≈ 0.342 µM) | ≤ 0.025 | 1.56 (≈ 2.66 µM) | ≤ 0.025 | ≤ 0.025 | – | –
CC(O)C[N+](C)(C)C/C=C/C1=C(C(=O)[O-])N2C(=O)[C@@H](NC(=O)/C(=N\OCF)c3nsc(N)n3)[C@H]2SC1 (stereo partly drawn) [Example 4, 7β-[2-(5-Amino-1,2,4-thiadiazol-3-yl)-(Z)-2-fluoromethoxyiminoacetamido]-3-[(E)-3-[(2-hydroxypropyl)dimethylammonio]-1-propen-1-yl]-3-cephem-4-carboxylate] | 0.1 (≈ 0.184 µM) | 0.4 (≈ 0.736 µM) | 0.05 (≈ 0.092 µM) | 0.8 (≈ 1.47 µM) | 0.05 (≈ 0.092 µM) | ≤ 0.025 | – | –

More lines, main results first:

MIC (Ser. marcescens ES-75) [µg/mL] | MIC (Staph. aureus 209-P) [µg/mL] | MIC (Escher. coli NIHJ) [µg/mL] | MIC (Pseud. aeruginosa EP-01) [µg/mL] | MIC [1] [µg/mL] | MIC (Kleb. pneumoniae EK-6; [2]) [µg/mL] | Compound | LD50 (in vivo) [mg/kg] | MIC (Kleb. pneumoniae EK-6) [µg/mL]
0.1 (≈ 0.184 µM) | 0.8 (≈ 1.47 µM) | 0.05 (≈ 0.092 µM) | 0.8 (≈ 1.47 µM) | 0.05 (≈ 0.092 µM) | 0.05 (≈ 0.092 µM) | C[N+](C)(C/C=C/C1=C(C(=O)[O-])N2C(=O)[C@@H](NC(=O)/C(=N\OCF)c3nsc(N)n3)[C@H]2SC1)NC(N)=O [Example 53] | – | –
0.1 (≈ 0.16 µM) | 0.4 (≈ 0.638 µM) | 0.1 (≈ 0.16 µM) | 0.8 (≈ 1.28 µM) | 0.1 (≈ 0.16 µM) | 0.1 (≈ 0.16 µM) | C[N+]1(C/C=C/C2=C(C(=O)[O-])N3C(=O)[C@@H](NC(=O)/C(=N\OCC#N)c4nsc(N)n4)[C@H]3SC2)CCN(S(N)(=O)=O)CC1 [Example 156] | – | –
≤ 0.025 | 0.2 (≈ 0.347 µM) | ≤ 0.025 | 1.56 (≈ 2.71 µM) | ≤ 0.025 | ≤ 0.025 | NC(=O)Cc1ccc[n+](C/C=C/C2=C(C(=O)[O-])N3C(=O)[C@@H](NC(=O)/C(=N\OCF)c4nsc(N)n4)[C@H]3SC2)c1 [Example 85] | – | –
0.05 (≈ 0.0807 µM) | 0.2 (≈ 0.323 µM) | ≤ 0.025 | 0.8 (≈ 1.29 µM) | ≤ 0.025 | ≤ 0.025 | C[N+]1(C/C=C/C2=C(C(=O)[O-])N3C(=O)[C@@H](NC(=O)/C(=N\OCF)c4nsc(N)n4)[C@H]3SC2)CCN(S(N)(=O)=O)CC1 [Example 119, 7β-[2-(5-Amino-1,2,4-thiadiazol-3-yl)-(Z)-2-fluoromethoxyiminoacetamido]-3-[(E)-3-(1-methyl-4-sulfamoyl-1-piperazinio)-1-propen-1-yl]-3-cephem-4-carboxylate] | – | –
